In US20220008425A1, “Pharmaceutical Composition for Treating B-Cell Lymphoma” (FUNDAN UNIVERSITY SHANGHAI CANER CENTER, priority 2018, published 2022):
Entries after “also recorded” stand apart in the source; their conditions may differ.

Legend:
[1] = system: acute promyelocytic leukemia (APL); conditions: APL patients; ATRA alone; cited from earlier work
[2] = system: AKT phosphorylation, SOX2, FGFR1/2 and CSC-associated molecules in NU-DUL-1-RCHO cells; assay: Immunoblot analysis; type: cell-based, human
NU-DUL-1-RCHO cells [3] = assay: Aldefluor analysis (ALDH1+ cells); type: cell-based, human
Experimental: ALDH1 is a selectable marker for a variety of normal and cancer stem cells, including hematopoietic stem cells. Therefore, we assessed the number of cancer stem cells in hematopoietic malignancies by detecting ALDH1 positive cells. As previously described, we used an ALDEFLUOR™ kit (StemCell Technologies, Vancouver, BC, CA) to detect populations with high ALDH1 activity. Briefly, 1×10^6 cells were suspended in 1 mL of assay buffer containing 1 μM of BAAA, a substrate of […]. Suspended cells were then equally divided into two samples, one as a negative control and the other as a test sample. To form the negative control, […] of DEAB, a specific ALDH inhibitor, was added to one equally-divided sample. Cells were then incubated at 37° C. for 30 minutes prior to flow cytometry analysis.

NU-DUL-1-RCHO cells [4] = conditions: 48 hours
Experimental: Further, we constructed LY8 and NU-DUL-1 cells resistant to chemotherapeutic drugs. Briefly, LY8-ORI and NU-DUL-1-ORI cells were treated with doxorubicin (Selleck Chemicals, Houston, Tex.) and vincristine (Selleck Chemicals, Houston, Tex.) at a clinical ratio of 50:1.4 by increasing the concentration. […] These cells were then treated with 2 μg/mL of 4-hydroperoxycyclophosphamide (4-HC) (Santa Cruz Biotechnology, Inc., Santa Cruz, Calif.) every 21 days for 3 cycles. The obtained CHO-resistant cells are referred to as LY8-CHO and NU-DUL-1-CHO, respectively. CHO-resistant cells were treated with doxorubicin, vincristine, and 4-HC every 22 days to maintain drug tolerance to CHO. […] To maintain RCHO resistance, LY8-RCHO cells and NU-DUL-1-RCHO cells were treated with 32 μg/mL of rituximab containing 20% (v/v) of NHS every 22 days, followed by treatment with doxorubicin, vincristine, and 4-HC. After 48 hours of treatment with doxorubicin, vincristine and 4-HC, drug resistance to CHO and RCHO was determined by a series of CCK-8 assays.
Cells were seeded in a 96-well plate at a density of 1×10^4/100 μL/well. Cells were pretreated with IPI-145, abemaciclib, AZD4547, PF-573228, R788, or saracatinib at increasing concentrations with or without CHO for 48 hours prior to performing CytoTox-Glo™ cytotoxicity assay. We performed cytotoxicity assay by using a CytoTox-Glo™ cytotoxicity assay kit (Promega Inc., Madison, Wis.) according to their instructions. Briefly, 50 μL of CytoTox-Glo™ cytotoxicity assay reagent was added to all wells, mixed by orbital shaking, and then incubated for 15 minutes at room temperature. Luminescence of experimental dead cells was detected with a Synergy HT microplate reader (BioTek, Biotek Winooski, Minn.), wherein 50 μL of lysate was added to all wells, mixed and incubated for 15 minutes at room temperature prior to detection of total luminescence. Cytotoxicity was calculated according to the following formula: Cytotoxicity (%)=Experimental dead cell luminescence/Total luminescence×100%.

[5] = system: SOX2 in tumor tissues grown from NU-DUL-1-RCHO-Luc cells; assay: SOX2 immunohistochemical staining of tumor tissues from the transplantation model; type: in vivo, SCID mice; conditions: tumors from NU-DUL-1-RCHO-Luc cells; compared with saline control
Source text: Construction of a transplantation model: we transduced LY8-RCHO cells and NU-DUL-1-RCHO cells with lentiviruses overexpressing the firefly luciferase gene to generate stable cells expressing firefly luciferase, referred to as LY8-RCHO-Luc cells and NU-DUL-1-RCHO-Luc cells, respectively. 8-week-old female SCID mice were purchased from SLAC (Shanghai laboratory animal center). The LY8-RCHO-Luc cells and NU-DUL-1-RCHO-Luc cells were resuspended in PBS prior to intraperitoneal injection of 1.5×10^7 cells per mouse. After intraperitoneal injection of the LY8-RCHO-Luc cells, mice were randomized into 6 groups (7 mice in every group) and given saline, R-CHOP, duvelisib, abemaciclib, R-CHOP+duvelisib, and R-CHOP+abemaciclib, respectively. Mice inoculated with the NU-DUL-1-RCHO-Luc cells were randomly divided into 6 groups (7 mice in every group), and were given saline, R-CHOP, duvelisib, AZD4547, R-CHOP+duvelisib, and R-CHOP+AZD4547, respectively. […] Tumor growth was monitored by bioluminescence at day 50 and day 90 after inoculation. For in vivo luminescence imaging, D-luciferin (Promega, Madison, Wis.) was intraperitoneally injected into mice (150 mg/kg). […] Luminescence images were captured with an exposure time of 30 seconds and the signal intensity of the tumor was measured by using Bruker MI software. The survival time of each mouse was recorded. […]
Tumor tissues from patients or animal models were fixed with 4% formalin, embedded in paraffin and sectioned. […] Immunoreactivity was then detected by using a GTVision III immunohistochemical detection kit (GK500705; Gene Tech Inc., Shanghai, China) according to its instructions. Quantitative scoring of immunostaining for SOX2, p-AKT, CDK6, FGFR1 and FGFR2 was performed on three independent sections under the microscope, according to the formula: score=3 (strong positive)×percentage+2 (medium positive)×percentage+1 (weak positive)×percentage+0 (negative)×percentage.

NU-DUL-1-RCHO-Luc cells = assay: Transplantation model, bioluminescence tumor growth and survival; type: in vivo; conditions: SCID mice bearing NU-DUL-1-RCHO-Luc cells
Source text: Construction of a transplantation model: we transduced LY8-RCHO cells and NU-DUL-1-RCHO cells with lentiviruses overexpressing the firefly luciferase gene to generate stable cells expressing firefly luciferase, referred to as LY8-RCHO-Luc cells and NU-DUL-1-RCHO-Luc cells, respectively. 8-week-old female SCID mice were purchased from SLAC (Shanghai laboratory animal center). The LY8-RCHO-Luc cells and NU-DUL-1-RCHO-Luc cells were resuspended in PBS prior to intraperitoneal injection of 1.5×10^7 cells per mouse. After intraperitoneal injection of the LY8-RCHO-Luc cells, mice were randomized into 6 groups (7 mice in every group) and given saline, R-CHOP, duvelisib, abemaciclib, R-CHOP+duvelisib, and R-CHOP+abemaciclib, respectively. Mice inoculated with the NU-DUL-1-RCHO-Luc cells were randomly divided into 6 groups (7 mice in every group), and were given saline, R-CHOP, duvelisib, AZD4547, R-CHOP+duvelisib, and R-CHOP+AZD4547, respectively. The drug dosing method based on one course of clinical use is shown in Table 1; the R-CHOP regimen was clinically used to treat DLBCL, while duvelisib, abemaciclib, and AZD4547 were tested in clinical trials (associated NCT numbers are NCT02576275, NCT01739309, and […], respectively). Tumor growth was monitored by bioluminescence at day 50 and day 90 after inoculation. For in vivo luminescence imaging, D-luciferin (Promega, Madison, Wis.) was intraperitoneally injected into mice (150 mg/kg). After 10 minutes, the mice were anesthetized by intraperitoneal injection of pentobarbital (50 mg/kg) and then their bioluminescence intensity was examined by using an In Vivo MS FX PRO system (Bruker Corporation, Billerica, Mass.). Luminescence images were captured with an exposure time of 30 seconds and the signal intensity of the tumor was measured by using Bruker MI software. The survival time of each mouse was recorded. Surviving mice were euthanized and dissected 120 days after inoculation and no intraperitoneal tumors were found. Tumor tissue was collected from moribund mice and fixed with 4% formalin. All animal experiments were performed in strict accordance with the experiment protocol approved by the animal ethics committee of Shanghai school of medicine of Fudan university.

NU-DUL-1-RCHO cells [6] = assay: EdU cell proliferation assay; type: cell-based, human; conditions: 1 μM, time point (48 or 120 hours) not given
Experimental: RCHO-resistant DLBCL cells were pretreated with duvelisib, abemaciclib, or AZD4547 at a concentration of 1 μM for 48 or 120 hours prior to EdU assay. For 120 hours of the study, the medium was replaced with a fresh medium containing 1 μM of inhibitor at 48 hours. EdU cell proliferation assay was performed by using a cell-light EdU Apollo643 in vitro flow cytometry kit (RiboBio Inc., Guangzhou, China) according to its instructions. Next, we assayed EdU staining positive cells on a Cytomics FC500 MPL flow cytometer (Beckman Coulter, Brea, Calif.).

NU-DUL-1-RCHO cells [7] = assay: CDC assay (rituximab-mediated complement-dependent cytotoxicity); type: cell-based, human; conditions: pre-treated with inhibitor 24 hours, then rituximab and 20% NHS 2 hours
Experimental: We constructed LY8 cells and NU-DUL-1 cells that are resistant to rituximab-mediated complement-dependent cytotoxicity (CDC). Briefly, original LY8 (LY8-ORI) cells and original NU-DUL-1 (NU-DUL-1-ORI) cells were treated with rituximab containing 20% (v/v) of NHS (Roche, Basel, Switzerland) with a concentration of gradually increasing from 4 μg/mL to 32 μg/mL to construct drug-resistant cells. […] Cytolysis induced by CDC was evaluated by detection of positive cells stained with propidium iodide (PI) through fluorescence activated cell sorting (FACS).

SMILES	complete remission rate [1]	levels of CSC-associated molecules (OCT4, NANOG, KLF4, c-MYC, CD34, CD133) [2]	proportion of ALDH1+ cells (CSCs) (NU-DUL-1-RCHO cells [3])	cytotoxicity (induction of cell death), inhibitor used alone (NU-DUL-1-RCHO cells [4]; inhibitor alone at increasing concentrations)	reversal of resistance to CHO (cytotoxicity of CHO), inhibitor co-treated with CHO (NU-DUL-1-RCHO cells [4]; inhibitor at increasing concentrations with CHO)	SOX2 expression level in tumor tissue (IHC) [5]	tumor growth (total photon flux) (NU-DUL-1-RCHO-Luc cells; inhibitor combined with R-CHOP, dosing per Table 1)	survival time (NU-DUL-1-RCHO-Luc cells; inhibitor combined with R-CHOP, experiment ended at day 120)	survival time (NU-DUL-1-RCHO-Luc cells; regimen or inhibitor used alone, dosing per Table 1)	cell proliferation (EdU incorporation) (NU-DUL-1-RCHO cells [6])	effect on resistance to R-mediated CDC (NU-DUL-1-RCHO cells [7])
CC1=C(/C=C/C(C)=C/C=C/C(C)=C/C(=O)O)C(C)(C)CCC1 [ATRA, all-trans retinoic acid]	about 85%										
COc1cc(CCc2cc(NC(=O)c3ccc(N4C[C@@H](C)N[C@@H](C)C4)cc3)n[nH]2)cc(OC)c1 [AZD4547]		also reduced their levels but to a greatly reduced extent compared with duvelisib	significantly reduced ALDH1+ subpopulations in NU-DUL-1-RCHO cells, but to a greatly reduced extent compared with duvelisib	negligible effect on induction of cell death; also recorded: only negligible cytotoxicity on drug-resistant cells	restored sensitivity of RCHO-resistant cells to CHO; also recorded: significantly enhanced cytotoxicity of CHO	significantly reduced the expression levels of SOX2 compared with a saline control	completely inhibit tumor growth	prolong the survival time to the end of the experiment at day 120	significantly prolonged the survival time	promoted proliferation of NU-DUL-1-RCHO cells due to involvement in inhibition of PI3K/AKT signaling, but to a lesser extent than PI3K inhibition	exacerbates resistance to R-mediated CDC
